ChEMBL document CHEMBL1122547, “Diastereomeric 6-desoxy-6-spiro-alpha-methylene-gamma-butyrolactone derivatives of naltrexone and oxymorphone. Selective irreversible inhibition of naltrexone binding in an opioid receptor preparation by a conformationally restricted michael acceptor ligand” (J Med Chem, 1984)
Several values for one entry are separate records, joined by “and”; a condition that tells them apart may be missing. Equal entries are not always repeated.

Experiments:
[1] = Ratio of IC50(presence of NaCl) to that of IC50(absence of NaCl)
Mus musculus [2] = species: Mus musculus; test: Compound was tested for irreversible inhibition of [3H]- Naltrexone binding with 10 nM naloxone+5 nM protection in the presence of NaCl (washed); assay type: functional; design: scale not given: the % may be the effect or the level left
Mus musculus [3] = species: Mus musculus; test: Compound was tested for irreversible inhibition of [3H]- Naltrexone binding with 10 nM naloxone+ 5 nM protection in the presence of NaCl (washed); assay type: functional; design: scale not given: the % may be the effect or the level left
Mus musculus [4] = species: Mus musculus; test: Compound was tested for irreversible inhibition of [3H]- Naltrexone binding with 10 nM naloxone+ 5 nM protection in the presence of NaCl (unwashed); assay type: functional; design: scale not given: the % may be the effect or the level left

For `C=C1CC2(CCC3(O)[C@H]4Cc5ccc(O)c6c5[C@@]3(CCN4CC3CC3)C2O6)OC1=O` (stereo in doubt; 4a), the Ratio [1] was 0.8.

For `C=C1CC2(CCC3(O)[C@H]4Cc5ccc(O)c6c5[C@@]3(CCN4C)C2O6)OC1=O` (stereo in doubt; 4b), the Ratio [1] was 7.6.

In the case of `C=C1CC2(CCC3(O)[C@H]4Cc5ccc(O)c6c5[C@@]3(CCN4CC3CC3)C2O6)OC1=O` (stereo in doubt; 5a) [listing 1 of 2 here], the Control (Mus musculus [2]) was 80%, the Control (Mus musculus [3]) was 93% and the Control (Mus musculus [4]) was 28% and 13%.

`C=C1CC2(CCC3(O)[C@H]4Cc5ccc(O)c6c5[C@@]3(CCN4CC3CC3)C2O6)OC1=O` (stereo in doubt; 5a) [listing 2 of 2 here] gave a Ratio [1] of 0.4.

In the case of `C=C1CC2(CCC3(O)[C@H]4Cc5ccc(O)c6c5[C@@]3(CCN4C)C2O6)OC1=O` (stereo in doubt; 5b), the Ratio [1] was 7.1.
